Key:
cells = assay type: cell-based; conditions: Mus musculus, N2a-cl3, 120 h
in vitro = conditions: mouse, dividing ScN2a-cl3 cells
[1] = Inhibition of RML prion protein infected in mouse dividing ScN2a-cl3 cells expressing full length mouse PrP assessed as reduction of PrPsc level after 5 days by Western blotting analysis; assay type: cell-based; conditions: N2a-cl3, 120 h
N2a-cl3 [2] = experiment: Inhibition of RML prion protein infected in mouse stationary-phase ScN2a-cl3 cells expressing full length mouse PrP assessed as reduction of PrPsc level at 10 uM after 5 days by ELISA; assay type: cell-based
N2a-cl3 [3] = experiment: Inhibition of RML prion protein infected in mouse dividing ScN2a-cl3 cells expressing full length mouse PrP assessed as reduction of PrPsc level at 10 uM after 5 days by ELISA; assay type: cell-based
[4] = AUClast in FVB mouse plasma at 10 mg/kg, po qd; assay type: ADME, organism-based; design: time 0 - last, dose 10 mg/kg, route oral
[5] = Ratio of AUClast in FVB mouse brain to FVB mouse plasma; assay type: ADME; conditions: read-out: Ratio AUC
[6] = Cmax in FVB mouse plasma at 10 mg/kg, po qd; assay type: ADME, organism-based; design: dose 10 mg/kg, route oral
[7] = AUClast in FVB mouse brain at 10 mg/kg, po qd; assay type: ADME, organism-based; design: time 0 - last, dose 10 mg/kg, route oral
[8] = Inhibition of RML prion protein infected in mouse stationary-phase ScN2a-cl3 cells expressing full length mouse PrP assessed as reduction of PrPsc level after 5 days; assay type: cell-based; conditions: N2a-cl3, 120 h
[9] = Cytotoxicity against mouse stationary-phase ScN2a-cl3 cells assessed as cell viability after 5 days by calcein-AM staining-based fluorescence assay; design: species or system N2a-cl3; conditions: read-out: LC50

| Structure (SMILES) | EC50 (cells) [nM] | EC50 [1] [nM] | inhibition (N2a-cl3 [2]) [%] | inhibition (N2a-cl3 [3]) [%] | other results |
| --- | --- | --- | --- | --- | --- |
| CN1C[C@H](C(=O)N[C@]2(C)O[C@@]3(O)[C@@H]4CCCN4C(=O)[C@H](Cc4ccccc4)N3C2=O)C[C@@H]2c3cccc4[nH]cc(c34)C[C@H]21 [DIHYDROERGOTAMINE] | 6440 |  |  |  | CC50 at 120 h (in vitro): > 10000 nM |
| Nc1c(C(=O)Nc2ccc3c(c2)OCCO3)sc2nc(-c3cccs3)ccc12 | 420 |  |  |  | CC50 at 120 h (in vitro): > 10000 nM |
| OCCNCc1cc(Br)ccc1OCc1ccc(Cl)cc1Cl | 4300 | 1990 |  |  |  |
| COc1cccc(Nc2nc(N)c3ccccc3n2)c1 | 4020 | 5990 |  |  |  |
| Oc1ccc(/C=C/c2cc(O)cc(O)c2)cc1 [RESVERATROL] | 3060 | 580 |  |  |  |
| O=C(Nc1ccc(Cl)cc1)Nc1ccc(C(F)(F)F)cc1Cl |  |  | 63 | 17 |  |
| CC(=O)c1ccc(N2CCN(CC(C)CCC=C(C)C)CC2)cc1 (stereo not drawn) |  |  | 55 | 78 |  |
| Cc1ccc2[nH]c3c(c2c1)CCCC3NCC12CC3CC(CC(C3)C1)C2 (stereo not drawn) |  |  | 53 | 98 |  |
| Cc1[nH]c2ccccc2c1-c1csc(-c2cccnc2)n1 | 3130 | 1700 |  |  |  |
| COc1ccc2[nH]c3c(OC)ncnc3c2c1 |  |  | 37 | 81 |  |
| COc1ccc(-c2ccc3c(N)c(C(=O)Nc4cc(F)ccc4F)sc3n2)cc1 | > 10000 |  |  |  | CC50 at 120 h (in vitro): > 10000 nM |
| CN1CCN(c2ccc(Nc3ccnc4cc(Cl)ccc34)cc2)CC1 | 1360 | 2070 |  |  | AUC(0-t) [4]: 0.82 µM·h; Kp [5]: 2.59; Cmax [6]: 410 nM; AUC(0-t) [7]: 2.12 µM·h |
| CC(=O)c1ccc(N2CCN(Cc3cccnc3)CC2)cc1 |  | 890 |  |  |  |
| CCOc1ccc(NC(=O)c2cc3ccccc3cc2O)cc1 | 130 | 40 |  |  |  |
| CCOc1ccc(C(=O)Nc2ccc3oc(-c4ccc(OC)cc4)nc3c2)cc1 | 60 | 130 |  |  |  |
| COc1ccc2cc1Oc1ccc(cc1)C[C@H]1c3cc(c(OC)cc3CCN1C)Oc1c(OC)c(OC)cc3c1[C@H](C2)N(C)CC3 [FANCHININ] | 2150 |  |  |  | CC50 at 120 h (in vitro): 5010 nM |
| CC(=O)c1ccc(NC(=O)c2sc3nc4c(cc3c2N)CCCC4)cc1 | > 10000 |  |  |  | CC50 at 120 h (in vitro): > 10000 nM |
| CC(=O)c1ccc2c(c1)N(CCCN(C)C)c1ccccc1S2 [ACEPROMAZINE] | 6930 |  |  |  | CC50 at 120 h (in vitro): > 10000 nM |
| CN(C)CCNc1nc(-c2ccc(Cl)cc2)nc2ccccc12 | 2650 | 2010 |  |  |  |
| CNCCc1c(-c2ccccc2)n(-c2ccccc2)c2ccccc12 |  |  | 46 | 81 |  |
| Cn1c(=N)n(CC(=O)c2ccc(Cl)cc2)c2ccccc21 | 7320 | 4970 |  |  |  |
| Cc1ccc2[nH]c3c(c2c1)CCCC3NC1CCCCC1 (stereo not drawn) |  |  | 48 | 27 |  |
| CCc1ccc(-c2cn3ccccc3n2)cc1 | 9160 | 4720 |  |  |  |
| CCc1ccc(-c2cn3cc(C)ccc3n2)cc1 | 710 | 290 |  |  |  |

| Structure (SMILES) | EC50 (cells) [nM] | EC50 [1] [nM] | inhibition (N2a-cl3 [2]) [%] | inhibition (N2a-cl3 [3]) [%] | other results |
| --- | --- | --- | --- | --- | --- |
| c1cncc(-c2nc(-c3c[nH]c4ccccc34)cs2)c1 | 270 | 830 |  |  |  |
| CCOc1ccc(/N=N/c2ccc(N)cc2N)cc1 [ETHOXAZENE] | 4760 |  |  |  | CC50 at 120 h (in vitro): > 10000 nM |
| COc1ccc(-c2cc(-c3ccc(C)cc3O)[nH]n2)cc1 | 260 | 120 |  |  |  |
| COc1ccc(-c2ccc3c(N)c(C(=O)Nc4ccc(F)cc4)sc3n2)cc1 | 140 |  |  |  | CC50 at 120 h (in vitro): > 10000 nM |
| COc1cc(N)c(-c2ccc3cc(OC)c(OC)cc3n2)cc1OC | 2560 | 1830 |  |  |  |
| COc1ccc(-c2ccc3c(N)c(C(=O)Nc4cc(OC)c(OC)c(OC)c4)sc3n2)cc1 | 420 |  |  |  | CC50 at 120 h (in vitro): > 10000 nM |
| O=C(Nc1ccc(Cl)cc1)Nc1ccc(Cl)c(F)c1 |  |  | 66 | 25 |  |
| COc1ccc(C(=O)Nc2ccc(-c3csc(C)n3)cc2)cc1 | 400 | 160 |  |  |  |
| CCN1CCN(c2ccc(Nc3ccnc4cc5ccccc5cc34)cc2)CC1 |  |  | 51 | 76 |  |
| CC(=O)c1ccc(N2CCN(Cc3ccccc3)CC2)cc1 | 710 | 620 |  |  |  |
| COc1cc(CN2CCN(c3cccc(C)c3C)CC2)cc(Br)c1O |  |  | 48 | 22 |  |
| O=C(Nc1nc(-c2ccc(-c3ccccc3)cc2)cs1)C1CC1 | 250 | 190 |  |  |  |
| O=C(Nc1nc(-c2ccc3ccccc3c2)cs1)C1CC1 | 990 | 570 |  |  |  |
| COc1ccc(-c2ccc3c(N)c(C(=O)Nc4ccc(SC)cc4)sc3n2)cc1 | 290 |  |  |  | CC50 at 120 h (in vitro): > 10000 nM |
| Clc1ccc(N2CCN(C3CCSC3)CC2)cc1 (stereo not drawn) |  |  | 51 | 42 |  |
| c1ccc2cc(-c3cn4ccsc4n3)ccc2c1 | 6020 | 2490 |  |  |  |
| COc1ccc2cc3c(N)c(C(=O)Nc4ccc(C(C)=O)cc4)sc3nc2c1 | 80 | 60 |  |  | CC50 at 120 h (in vitro): > 10000 nM |
| COc1ccc(-c2cc(-c3ccc(OC)cc3O)[nH]n2)cc1 | 70 | 100 |  |  |  |
| N#Cc1ccc(/C=C/c2ccc(F)cc2)cc1 | 1520 | 530 |  |  |  |
| CC(=O)c1ccc(N2CCN(Cc3ccccc3Cl)CC2)cc1 |  |  | 41 | 86 |  |
| CCc1ccc(-c2cn3cc(C)sc3n2)cc1 | 1780 | 520 |  |  |  |
| CC(=O)c1ccc(N2CCN(Cc3cccc(Cl)c3)CC2)cc1 |  |  | 31 | 84 |  |
| Nc1c(C(=O)Nc2cc(F)ccc2F)sc2nc(-c3ccncc3)ccc12 | 2220 |  |  |  | CC50 at 120 h (in vitro): > 10000 nM |
| COc1ccc(-c2nc3cc(NC(=O)c4ccc(OCc5ccccc5)cc4)ccc3o2)cc1 | 70 | 2570 |  |  |  |

| Structure (SMILES) | EC50 (cells) [nM] | EC50 [1] [nM] | inhibition (N2a-cl3 [2]) [%] | inhibition (N2a-cl3 [3]) [%] | other results |
| --- | --- | --- | --- | --- | --- |
| CC(=O)c1ccc(N2CCN(Cc3c(C)n(C)n(-c4ccccc4)c3=O)CC2)cc1 |  |  | 35 | 64 |  |
| COc1ccc(CN2CCN(c3ccc(C(C)=O)cc3)CC2)c(C)c1C |  |  | 41 | 95 |  |
| O=C(Nc1ccc(F)c(Cl)c1)Nc1ccc(Cl)c(Cl)c1 |  |  | 61 | 92 |  |
| CC(=O)c1ccc(NC(=O)c2sc3nc(-c4cccs4)ccc3c2N)cc1 | 100 |  |  |  | CC50 at 120 h (in vitro): > 10000 nM |
| COc1ccc(-c2ccc3c(N)c(C(=O)Nc4ccc(F)cc4)sc3n2)cc1OC | 240 |  |  |  | CC50 at 120 h (in vitro): > 10000 nM |
| COc1ccc(CCNC(=O)c2sc3nc(-c4cccs4)ccc3c2N)cc1OC | > 10000 |  |  |  | CC50 at 120 h (in vitro): > 10000 nM |
| Cc1ccc2c(c1)c1c(n2CC(O)CO)C(=O)CCC1 (stereo not drawn) |  |  | 39 | 14 |  |
| CC(=O)c1ccc(N2CCN(Cc3ccc(Br)s3)CC2)cc1 |  |  | 34 | 97 |  |
| Nc1c(C(=O)Nc2ccc(F)cc2)sc2nc(-c3ccc4c(c3)OCO4)ccc12 | 750 |  |  |  | CC50 at 120 h (in vitro): > 10000 nM |
| N#Cc1sc2nc(-c3ccc4c(c3)OCO4)ccc2c1N | 980 | 520 |  |  | AUC(0-t) [4]: 1.56 µM·h; Kp [5]: 4.72; Cmax [6]: 130 nM; AUC(0-t) [7]: 7.36 µM·h |
| COc1ccccc1OCCNCC(O)COc1cccc2[nH]c3ccccc3c12 (stereo not drawn) [CARVEDILOL] | 2280 |  |  |  |  |
| Nc1c(/N=N/c2ccc(-c3ccc(/N=N/c4cc(S(=O)(=O)O)c5ccccc5c4N)cc3)cc2)cc(S(=O)(=O)O)c2ccccc12 [CONGO RED] | 450 |  |  |  | CC50 at 120 h (in vitro): > 10000 nM |
| CC(=O)c1ccc(N2CCN(Cc3ccc(F)cc3F)CC2)cc1 |  |  | 30 | 85 |  |
| COc1cc(CNCCO)cc(Br)c1OCc1ccccc1Cl | 4830 | 2740 |  |  |  |
| O=C(Nc1ccccc1)Nc1ccc(F)c(Cl)c1 |  |  | 56 | 87 |  |
| COc1ccc(-c2ccc3c(N)c(C(=O)Nc4ccc(OC)c(OC)c4)sc3n2)cc1 | > 10000 |  |  |  | CC50 at 120 h (in vitro): > 10000 nM |
| COc1ccc(CNC(=O)c2sc3nc(-c4cccs4)ccc3c2N)cc1 | 1830 |  |  |  | CC50 at 120 h (in vitro): > 10000 nM |
| O=C(Nc1ccc(Br)cc1)Nc1cc(Cl)cc(Cl)c1 |  |  | 51 | 91 |  |
| Cc1ccc2[nH]c3c(c2c1)CCCC3NCCCN(C)C (stereo not drawn) | 1580 |  | 94 | 88 | EC50 [8]: 7500 nM; CC50 at 120 h [9]: > 10000 nM; CC50 at 120 h (in vitro): > 10000 nM |
| CN1CCc2cccc3c2[C@H]1Cc1ccc(O)c(O)c1-3 [APOMORPHINE] | > 10000 |  |  |  | CC50 at 120 h (in vitro): > 10000 nM |
| Cn1c(=N)n(CC(=O)c2ccc(Br)cc2)c2ccccc21 | 2580 | 1450 |  |  |  |
| CC(=O)c1ccc(N2CCN(Cc3cccc(Br)c3)CC2)cc1 |  |  | 39 | 67 |  |
| O=C(Nc1ccc(Cl)c(Cl)c1)NC(CC(=O)c1ccc([N+](=O)[O-])cc1)C(Cl)(Cl)Cl (stereo not drawn) |  |  | 61 | 83 |  |

From ChEMBL document CHEMBL3091297, “Antiprion compounds that reduce PrP(Sc) levels in dividing and stationary-phase cells” (Bioorg Med Chem, 2013)
